Test results published in PMC5955835 (ACS chemical neuroscience, 2018).
Entries after “also recorded” stand apart in the source; their conditions may differ. Counter-ions that a name gives are not always drawn.

Experiments:
[1] = test system: VC4 and 5 neurons of C. elegans SC_APP model; test: HCS microfluidic neurodegeneration assay in C. elegans SC_APP model; format: in vivo; conditions: for effect on neurodegeneration of VC4 and 5 neurons in SC_APP model: D3 adult animals, liquid culture, doses 0.02, 0.2, 2 and 20 μM, vs vehicle-treated SC_APP (200 μM FUdR, 0.5% DMSO); for concentration of highest efficacy in protecting against neurodegeneration: SC_APP model, D3 animals, four doses 0.02-20 μM
[2] = test system: VC4 and 5 neurons of SC_APP vem-1/PGRMC1 null C. elegans; conditions: earlier work, SC_APP model; cited from earlier work
[3] = test system: transgenic APP mouse model; conditions: listed as SAS-0132; cited from earlier work

| SMILES | effect on neurodegeneration of VC4 and 5 neurons in SC_APP model [1] | concentration of highest efficacy in protecting against neurodegeneration [1] [µM] | PGRMC1 dependence of reduction of neurodegeneration [2] | cognitive performance in transgenic AD mice [3] |
| --- | --- | --- | --- | --- |
| C=C(c1ccc(C(=O)O)cc1)c1cc2c(cc1C)C(C)(C)CCC2(C)C [bexarotene] | protected the cholinergic neurons of the SC_APP model | 20 | – | – |
| COc1ccc(S(=O)(=O)Nc2cc(Cl)cc(Cl)c2OC)cc1N1CCNCC1 [SB399885, SB 399885 hydrochloride] | protected the cholinergic neurons of the SC_APP model | 20 | – | – |
| OC(CNc1ccccc1)Cn1c2ccc(Br)cc2c2cc(Br)ccc21 (stereo not drawn) [Compound P7C3, P7C3] | – | 0.2 | – | – |
| CN1CCN(c2ccc3c(c2)[C@H]2C[C@@H]3CCN2C(=O)OCc2ccccc2)CC1 [Compound 1] | reduce neurodegeneration relative to the vehicle treated SC_APP group | – | reduced neurodegeneration through a pathway dependent upon PGRMC1 | improvement in cognitive performance; also recorded: efficacious |
| Fc1ccc(-n2cc(CCCCN3CCC4(CC3)OCc3ccccc34)c3ccccc32)cc1 [Siramesine] | increase neurodegeneration after a dosing threshold is exceeded despite an initial decrease at lower dosages | – | – | – |
